Experimental data from patent publication EP0393973A1, “Antitumor Agent Indicated for lung cancer” (priority 1989, dated 1990).

Columns and labels:
sarcoma 180 = conditions: oral administration to mice bearing sarcoma 180; cited from earlier work
chicken embryos = conditions: cited from earlier work
platelet aggregation = assay: Suppression of platelet aggregation; conditions: substance per se
[1] = Observation of gastric mucosa after oral dosing of normal rats; conditions: rat, in vivo
Excerpt: It was therefore assumed that a massive dose of citral or lemongrass oil which contains citral as its principal constituent would adversely affect normal cells. • (2) Instead of dosing lemongrass oil directly to normal rats, lemongrass oil or citral in β-cyclodextrin clathrates was mixed with feed.

In the case of `CC(C)=CCCC(C)=CC=O` [Citral, citral], the “growth of cancer cells” value (sarcoma 180) is given as “suppresses growth of cancer cells”, the teratogenicity (chicken embryos) is given as “teratogenic” and the platelet aggregation (platelet aggregation) is given as “strongly suppresses”. The “findings on the gastric mucosa” value [1] was “petechiae were observed on the gastric mucosa”.
